Values quoted from earlier work, collected in patent US7141235B2, “Stabilized gas emulsion containing phospholipid for ultrasound contrast enhancement” (Imcor Pharmaceutical Co., priority 1993, dated 2006).

Details: in water

Row | SMILES | gel to liquid-crystal phase transition temperature
1 | CCCCCCCCCCCCCCCCCC(=O)OC[C@H](COP(=O)([O-])OCC[N+](C)(C)C)OC(=O)CCCCCCCCCCCCCCCCC [DSPC, distearoyl phosphatidylcholine] | 55.5 °C
2 | CCCCCCCCCCCCCC(=O)OC[C@H](COP(=O)([O-])OCC[N+](C)(C)C)OC(=O)CCCCCCCCCCCCC [DMPC, dimyristoyl phosphatidylcholine] | 23.5 °C
